The text below walks through data of patent US8575376B2, “Steroide anionic compounds, method of their production, usage and pharmaceutical preparation involving them” (Ustav Organicke Chemie A Biochemie Akademie Ved Ceske …, priority 2009, dated 2013).

“Also recorded” adds a separate entry of the source.

Data set [1] relates to rats. The experiment in a line: Histochemical analysis (FluoroJadeB) after bilateral NMDA-induced hippocampal lesion. Particulars: 1 mg/kg i.p. It is filed as in vivo, rat. Here is the method: Animals were divided into four groups consisting of two series. First group of animals received an application of NMDA (intrahipocampally, i.h.) and compound from Example 9 (1 mg/kg, i.p.). Second group received NMDA i.h. and cyclodextrine i.p., third group obtained saline i.h. and cyclodextrin i.p. Forth group was applied with sterile saline i.h. and compound from Example 9 at a dose 1 mg/kg, i.p. Six animals from each group was sacrificed and perfused at intervals of 1-4 days after experimental manipulation.
Animals were deeply anesthetized by isoflurane (3.5%, driven by air) and fixed in the stereotaxic apparatus. Small drills were made in the skull and subsequently microinjection of NMDA (1 μl, […] NMDA in saline; pH adjusted to 7.2 by calcium dihydrogenphosphate) into both hippocampi was pursued. Coordinates of application (AP=4, L=2.5, DV=4) were localized with stereotaxic atlas (Paxinos and Watson, 2005) and verified in histological controls. Rats were again placed in soft recovery boxes after surgery and carefully monitored after surgery.
Application of compound from Example 9 was done according to experimental scheme either 30 min prior to and after NMDA application (in first series of experiments) or 30 min after lesion in the second series. Animals were perfused on days 1-4 after lesion, their brains were fixed with paraformaldehyde and sacharose solution. The brains were subsequently frozen to −70° C., and thin brain slices were prepared on cryomicrotome, stained and analyzed under light microscope.

Data set [2] has as its system Long-Evans male rats. In words: Acute toxicity in rat. It is filed as in vivo. Here is the method: Toxicity of compound from example 9 was tested on 2-month-old Long-Evans male rats. Animals were randomly assigned to 4 groups per 7 animals each. The first group was injected i.p. with saline, the second group received i.p. cyclodextrine, the third group obtained received the compound from example 9 at a dose 1 mg/kg (dissolved in β-cyclodextrine) and the last group compound from example 9 at a dose 100 mg/kg (dissolved in β-cyclodextrine). Animals were monitored for the period of 5 days. At the end of the experiment macroscopic dissection was carried out and organs were weighted (brain, heart, liver, spleen and kidneys). Animals' weight, food and water consumption was monitored daily. At the same time the behavior and locomotor activity was observed and animals were inspected for detection of effusions, constipation, etc.

For data set [3], the system named is rats. The experiment in a line: Prepulse inhibition in MK-801 animal model of schizophrenia. It is filed as in vivo, rat. As for the experimental part: The effect of i.p. administration of the compound from example 9 at doses of 0.1 and 1 mg/kg on sensorimotor gating in prepulse inhibition (PPI) test was evaluated. All testing occurred within the startle chamber (SR-LAB, San Diego Instruments, USA), which consisted of a clear Plexiglas cylinder (8.2 cm diameter, 10×20 cm) that rested on a piezoelectric accelerometer inside a ventilated and illuminated chamber. The piezoelectric accelerometer detected and transduced motion within the cylinder. A high frequency loudspeaker inside the chamber (24 cm above the animal) produced both a background noise of 62 dB and the acoustic stimuli. All rats were initially tested in a short session (5 min acclimatization period plus 5 single stimuli; 120 dB strong) 2 days before the experiment.
The background noise (62 dB) was presented alone for 5 min (acclimatization period) and then continued throughout the session. […] The PPI was measured as a difference between the average responses to the single pulse and prepulse-pulse trials, and was expressed as a percent of the PPI [100−(mean response for prepulse-pulse trials/startle response for single pulse trials)×100]. […]

In data set [4] the test system is rats. In words: Active allothetic place avoidance (AAPA) task, compound applied alone. Particulars: Example 9 1 and 10 mg/kg s.c., dizocilpine 0.1-0.3 mg/kg i.p. It is filed as in vivo, rat. Here is the method:
The effect of compound from Example 9 on cognitive behaviors and locomotion was assessed using active allothetic place avoidance (AAPA) task, which requires intact hippocampi and ability of animals to navigate in space using distinct reference frames (spatial navigation and “cognitive coordination”) (Wesierska et al., 2005) and it also allows measuring changes in the accompanying locomotor activity. AAPA task training involves animals trained to move over a slowly rotating uniform circular arena, on which a prohibited sector is defined, entering which is punished by a mild footshock. A shock sector and its position can be determined solely by its relationship to distal orienting cues in the room (Stuchlik et al., 2008).
This task is highly dependent upon hippocampal formation, with unilateral reversible ablation of this structure with TTX leading to avoidance deficit (Cimadevilla et al., 2001). Animals solving this task should walk in a direction opposite to arena rotation; otherwise it would be repeatedly brought to a fixed sector by arena rotation. We conducted 4 acquisition session of AAPA task, during which the sector location was always reinforced and remained stable throughout the training. Each session lasted 20 min.
Control animals obtained saline intraperitoneally (i.p.) whilst experimental groups received subcutaneous (s.c.) injections of the compound from Example 9 at doses 1 mg/kg and 10 mg/kg (dissolved in cyclodextrin). Solution of compound from Example 9 (1 mg/2 ml or 10 mg/2 ml in cyclodextrin) was applied s.c. at a volume 2 ml/kg of body weight (b.w.). Intraperitonal application of dizocilpine (a non-competitive NMDA receptor antagonist; showing significant neuroprotective activity but exerting cognition-disturbing and psychotomimetic effects) was used as a positive control. Dizocilpine was applied at doses 0.1 mg/kg, 0.2 mg/kg and 0.3 mg/kg. It is worth noting that dizocilpine (albeit its experimental neuroprotective activity) is often used to model schizophrenia-like behaviors in […] and it has been repeatedly shown to exert a dose-dependent learning deficit and hyperlocomotion.

Data set [5] deals with rats. The experiment in a line: Elevated plus maze (anxiety). It is filed as in vivo, rat. As for the experimental part:
The effect of i.p. administration of compound from example 9 in doses of 0.001, 0.01, and 10 mg/kg on behaviour in elevated plus maze was evaluated. The number of entrances into open arms and the total time spent in open arms were assessed.
The apparatus consisted of two opposite open arms (45 cm×10 cm) crossed at right angles with two opposite arms of the same size enclosed by walls 40 cm high, except for the central part where the arms crossed. The whole apparatus was elevated 50 cm above the floor.

Consider `CC(=O)[C@H]1CC[C@H]2[C@@H]3CC[C@@H]4C[C@H](OC(=O)[C@@H](N)CCC(=O)O)CC[C@]4(C)[C@H]3CC[C@]12C` [Example 9, 20-Oxo-5β-pregnan-3α-yl L-glutamyl 1-ester], for which, in data set [1], the “NMDA-induced damage in caudatoputamen and thalamic nuclei (histology)” value is listed as “Alleviation, but not elimination of damage”; the “NMDA-induced damage in neocortex (histology)” value is “pronounced cessation of damage in the whole neocortex”. In addition, in data set [1] (dentate gyrus, Cornu ammonis fields, subiculum), the “NMDA-induced damage to the hippocampus (histology)” value is reported as “significant decrease of NMDA-induced damage to the hippocampus”. Besides, the “short-term body weight gain” value in data set [2] (1 mg/kg i.p. (lower dose), 5 days) is listed as “failed to affect short-term body weight gain”. Also, the “time to spontaneous awakening” value in data set [2] (100 mg/kg i.p.) was found to be 4 h. In addition, the “short-term body weight gain” value in data set [2] (100 mg/kg i.p. (higher dose), 5 days) was “tended to decrease it slightly”. Also, the “locomotor activity on the day of application” value in data set [2] (100 mg/kg i.p., 15 minutes after injection) is “decreased locomotor activity”. For the same compound, in data set [2] (100 mg/kg i.p., 45 minutes after injection), the anesthetic effect result is reported as “gradually changed into anesthesia of animals”. Further, the “weight of body organs (brain, heart, liver, spleen, kidneys)” value in data set [2] (1 and 100 mg/kg i.p., autopsy on day 5) was “no differences between controls and animals treated with the compound from example 9”. Besides, the “signs of acute toxicity” value in data set [2] (rat, i.p., doses up to 100 mg/kg, 5 days) was “does not exhibit any signs of acute toxicity; also recorded: absense of any signs of acute toxicity”. Moreover, in data set [3] (Example 9 0.1 or 1 mg/kg i.p. co-administered with MK-801 0.1 mg/kg), the “prepulse inhibition deficit induced by MK-801” value is “blocked the exacerbating effect of MK-801”. The prepulse inhibition entry in data set [3] (Example 9 alone, 0.1 and 1 mg/kg i.p.) is reported as “had no influence on prepulse inhibition”. Further, in data set [4], the “maximum time avoided in AAPA” value is “did not significantly impaired cognitive performance compared to control animals” and the “number of entrances into shock sector in AAPA” value is “neither of doses of compound from Example 9 caused worsening in this parameter”. Moreover, the “total distance traveled in AAPA (locomotor activity)” value in data set [4] (20-min sessions) was “failed to exhibit either decrease or increase in total distance compared to controls”. In addition, in data set [5] (0.001, 0.01 and 10 mg/kg i.p.), the “anxiolytic effect in elevated plus maze” value is listed as “pronounced dose-dependent anxiolytic effect”. Further, the “number of entries into open arms” value in data set [5] (10 mg/kg i.p., p<0.05 vs control) is on record as “significant increase of number of entries into open arms”.
